Patent publication US8153773B2, “Synthesis and use of anti-reverse phosphorothioate analogs of the messenger RNA cap” (Board of Supervisors of Louisiana State University and …, priority 2007, dated 2012)
“Also recorded” adds a separate entry of the source.

Experiments:
[1] = target: hDcp2 (Homo sapiens, UniProt Q8IU60); experiment: In vitro RNA decapping assay with recombinant hDcp2; type: biochemical; conditions: for hydrolysis of capped oligonucleotide by hDcp2: capped 32P-labeled short RNA, recombinant hDcp2, anion exchange HPLC (FIG. 6); for Dcp2 susceptibility: radioactivity in pGp* as a percentage of total cap radioactivity, capped oligonucleotides digested with hDcp2
Procedure: Dcp2 activity was measured with capped 48-nt oligonucleotides as substrates, a truncated form of luciferase mRNA (48 nucleotides). GST-hDcp2 was expressed in Escherichia coli and purified as described by Z. Wang et al., “The hDcp2 protein is a mammalian mRNA decapping enzyme,” Proc. Natl. Acad. Sci. U.S.A., vol. 99, pp. 12663-12668 (2002). Capped oligonucleotides were first subjected to digestion with GST-hDcp2 at 37° C. for 2 h in decapping buffer (10 mM Tris-HCl, pH 7.5, 100 mM potassium acetate, 2 mM magnesium acetate, 0.5 mM MnCl2, 2 mM dithiothreitol, and 0.1 mM spermine). See C. Piccirillo et al., “Functional characterization of the mammalian mRNA decapping enzyme hDcp2,” RNA, vol. 9, pp. 1138-1147 (2003). The reaction mixture was then extracted once with an equal volume of phenol and twice with chloroform, and RNA was precipitated with ethanol. Products of the decapping reaction were further digested with a cocktail of ribonucleases (RiboShredder; Epicentre) at 37° C. for 1 h. The products were resolved by anion-exchange HPLC on a 4.6×250-mm Partisil 10SAX/25 column (Whatman). The gradient consisted of water for 1 min, a linear gradient to 112 mM KH2PO4, pH 4.5, for 20 min, a linear gradient of 112-450 mM KH2PO4 for 15 min, a linear gradient of 450 mM to 1.5 M KH2PO4 for 15 min, and isocratic elution at 1.5 M of KH2PO4 for 9 min, all at a flow rate 1 ml/min.
We tested oligonucleotides capped with either of S-ARCAs for hydrolysis by recombinant hDcp2 to test whether mRNA capped with the various diastereomers of m2^7,2′-OGpppsG and m2^7,2′-OGppspG would differ in their sensitivity to cleavage by Dcp1/Dcp2. See generally Z. Wang et al., “The hDcp2 protein is a mammalian mRNA decapping enzyme,” Proc. Natl. Acad. Sci. U.S.A., vol. 99, pp. 12663-12668 (2002), and Z. Wang et al., “An mRNA Stability Complex Functions with Poly(A)-Binding Protein To Stabilize mRNA In Vitro”, Mol. Cell. Biol., vol. 19, pp. 4552-4560 (1999). Cap analogs used were initially unlabeled, so to follow the products of the digestion reaction we synthesized capped oligonucleotides in the presence of [α-^32P]GTP and a DNA template in which G was the first ribonucleotide specified after the promoter. The oligonucleotides capped with either of the S-ARCAs were subjected to Dcp2 digestion in vitro, after which the products were further digested with a cocktail of ribonucleases (RiboShredder from Epicenter). Any nucleotide on the 5′ side of a G residue acquired a ^32P-labeled 3′-phosphate group after ribonuclease digestion by nearest-neighbor transfer. Anion exchange chromatography was then used to resolve the labeled 3′-nucleoside monophosphates (3′-NMP*), at internal positions in the RNA, from labeled 5′-terminal products (FIG. 6). The latter comprise p3 Gp* derived from uncapped transcripts and m2^7,2′-OGp3 Gp* (when m2^7,2′-OGp3G was used), or pGp* resulting from capped RNA resistant or nonresistant to enzymatic cleavage, respectively. All cap analogs used were ARCAs, which ensured that they were incorporated into RNA exclusively in the correct orientation. This further guaranteed that only one 5′-terminal product (m2^7,2′-OGp3 Gp*) was observed upon ribonuclease treatment. Uncapped RNA is not a substrate for Dcp2, which explains why p3 Gp* product was observed after Dcp2 digestion.
See E. Grudzien et al., “Differential inhibition of mRNA degradation pathways by novel cap analogs,” J. Biol. Chem., vol. 281, pp. 1857-1867 (2006).

[2] = target: T1, DcpS (Caenorhabditis elegans, UniProt G5EFS4); experiment: Enzymatic hydrolysis by C. elegans DcpS; type: biochemical; set-up: key: the analogs assigned as resistant remained completely undigested under the applied conditions; the analogs assigned as hydrolyzed were hydrolyzed by DcpS with efficiency comparable to the respective unmodified parent compound; conditions: conditions giving complete degradation of unmodified parent within 40-90 min, RP HPLC
T1 sequence (G5EFS4 1-311): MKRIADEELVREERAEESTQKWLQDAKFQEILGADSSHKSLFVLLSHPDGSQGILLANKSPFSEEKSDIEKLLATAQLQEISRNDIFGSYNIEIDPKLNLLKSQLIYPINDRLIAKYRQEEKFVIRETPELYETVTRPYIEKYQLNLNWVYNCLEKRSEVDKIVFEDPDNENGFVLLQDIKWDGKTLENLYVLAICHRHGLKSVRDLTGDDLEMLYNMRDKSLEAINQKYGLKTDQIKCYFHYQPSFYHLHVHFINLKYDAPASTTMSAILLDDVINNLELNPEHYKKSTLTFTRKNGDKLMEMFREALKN
Procedure: Human and nematode DcpS were expressed in Escherichia coli according to the procedures described previously (L. S. Cohen et al., “Nematode m7 GpppG and m3(2,2,7)GpppG decapping: activities in Ascaris embryos and characterization of C. elegans scavenger DcpS,” RNA, vol. 10, pp. 1609-1624 (2004)). Both proteins were stored at −80° C. in 20 mM Tris buffer, pH 7.5, containing 50 mM KCl, 0.2 mM EDTA, 1 mM DTT, 0.5 mM PMSF, and 20% glycerol. An appropriate cap analog at 1 mM concentration was treated with 5.0 or 7.0 μl of DcpS (from human or C. elegans, respectively) in 500 μl of 50 mM TRIS buffer, pH=7.9, containing 20 mM of MgCl2 and 60 mM of (NH4)2SO4 at 37° C. for 60-90 min. Every 15-20 min a 100 μl sample was collected from the reaction mixture and deactivated by incubation in 90° C. for 3 min. Collected samples were analyzed without further treatment by analytical RP HPLC using a linear gradient of methanol in 0.1 M KH2PO4, pH=6.0, from 0-50% within 15 min and UV-detection at 260 nm.
The new series of S-analogs were subjected to in vitro enzymatic hydrolysis catalyzed by DcpS from both human and C. elegans sources. In all experiments, the corresponding unmodified cap analog was used as a positive control, i.e., m^7GpppG for non-ARCA S-analogs and m2^7,2′-OGpppG for S-ARCAs. The amount of DcpS enzyme was optimized to provide complete degradation of the control substrate within 40-90 min. The samples collected from reaction mixtures at various time intervals were analyzed by RP HPLC (as described in Materials and Methods).
In Table 4, cap analogs at 4 μM concentration were subjected to enzymatic digestion by DcpS in conditions leading to complete degradation of the unmodified parent compound (i.e. m^7GpppG for non-ARCA S-analogs and m2^7,2′-OGpppG for ARCAs) within 40-90 min. Samples collected from reaction mixtures at various time intervals were analysed by RP HPLC with UV detection at 260 nm as described in Materials and Methods. […] The result was unchanged even if the reaction time was extended to 24 h, various amounts of enzyme were used, and composition of the reaction buffer was modified.

| Molecule | hydrolysis of capped oligonucleotide by hDcp2 [1] | Dcp2 susceptibility [1] [%] | Resistance to enzymatic hydrolysis by DcpS (from C. elegans) [2] |
| --- | --- | --- | --- |
| CO[C@@H]1[C@H](O)[C@@H](COP(=O)(O)OP(=O)([O-])OP(=O)(O)OC[C@H]2O[C@@H](n3cnc4c(=O)[nH]c(N)nc43)[C@H](O)[C@@H]2O)O[C@H]1n1c[n+](C)c2c(O)nc(N)nc21 [m2^7,2′-OGpppG, reference compound] | completely digested | 100 | hydrolyzed |
| m2^7,2′-OGpppsG (D1) [Compound 4a] |  | 96 | hydrolyzed |
| m2^7,2′-OGpppsG (D2) [Compound 4b] |  | 98 | hydrolyzed |
| m2^7,2′-OGppspG (D1) [Compound 5a] | much more susceptible to Dcp2 than its D2 counterpart | 71 | hydrolyzed |
| m2^7,2′-OGppspG (D2) [Compound 5b] | stabilized RNA against hDcp2 hydrolysis; also recorded: resistant to hDcp2 hydrolysis | 6 | hydrolyzed |
| m2^7,2′-OGpsppG (D1) [Compound 6a] |  | 84 | resistant |
| m2^7,2′-OGpsppG (D2) [Compound 6b] |  | 91 | resistant |
